System: PAH-PCLS
Experiment: Ex vivo precision-cut lung slices (PCLS) from PAH lungs, medial wall thickness
Format: cell-based
Conditions: PCLS from human PAH lungs; 200 µM on days 2 and 6, fixed day 10; vessels 20-150 µm; vs DMSO
Source text: Lungengewebeproben wurden von Patienten mit IPAH entnommen. Aus den mit 3% niedrigschmelzender Agarose gefüllten Lungenproben von Patienten mit IPAH wurden mit einem Vibratom (Leica Biosystems) Gewebeschnitte (400 µm dick) angefertigt. Die Lungengewebeschnitte wurden in DMEM-GlutaMAX-Medium mit 10 % fetalem Kälberserum, 1 % Penicillin/Streptomycin und 0,1 % Amphotericin B (Thermo Fisher Scientific) kultiviert, und die Behandlung wurde am zweiten Tag eingeleitet. Die Substanz SGC-CBP30 wurde in einer Konzentration von 200 µM an den Tagen 2 und 6 verabreicht. Am 10. Tag wurde das Gewebe in 4% Paraformaldehyd (Roti-Histofix; Carl Roth) fixiert und in Paraffin eingebettet. Die mediale Wanddicke wurde in allen Gefäßen mit einer Größe von 20-150 µm in den Lungenschnitten gemessen.
Das therapeutische Potenzial der EP300/CREBBP-Hemmung durch die Substanz SGC-CBP30 wurde untersucht. Dazu wurde die Wirksamkeit auf PAH-FBs und PAH-SMCs geprüft, die aus den Lungenarterien von menschlichen PAH-Patienten und aus den Lungenarterien von Ratten mit MCT-PAH (Rattenmodell mit Monocrotalin) isoliert wurden. […] Die Wirkung der EP300-Hemmung auf das vaskuläre Remodelling wurde durch Quantifizierung der prozentualen medialen Wanddicke in den mit der Substanz SGC-CBP30 inkubierten PCLS im Vergleich zu den mit DMSO inkubierten Kontrollen bewertet. […]

For `COc1ccc(CCc2nc3cc(-c4c(C)noc4C)ccc3n2C[C@H](C)N2CCOCC2)cc1Cl` [SGC-CBP30, 2-[2-(3-Chloro-4-methoxyphenyl)ethyl]-5-(3,5-dimethyl-1,2-oxazol-4-yl)-1-[(S)-2-(morpholin-4-yl)propyl]-1H-benzimidazole], the “mediale Wanddicke der umgestalteten PAs” value was “signifikante Verringerung”.
